# Experimental data: PMC7667639, “Optimized Opioid-Neurotensin Multitarget Peptides: From Design to Structure–Activity Relationship Studies” (Journal of Medicinal Chemistry, 2020)
# Where two headings read alike, the source gives them in different places. Numbered stars: 1 amine (or outer) side, 2 acyl side, 3 side chain; on linkers, the order of the positions; unused ones are H or OH. Square brackets hold non-standard residues; d marks the D form. Peptide text beside a SMILES is read from it. (6-OH)Tic = 6-hydroxy-1,2,3,4-tetrahydroisoquinoline-3-carboxylic acid, O=C([C@@H]1Cc2cc(O[*:3])ccc2CN1[*:1])[*:2]; X1 = O=C1[C@@H](N[*:1])Cc2ccccc2CN1CCC(=O)[*:2]; X2 = O=C([C@@H]1Cc2cc(O)ccc2CN1[*:1])[*:2]; Dmt = Cc1cc(O)cc(C)c1C[C@H](N)C(=O)O; Tle = CC(C)(C)[C@H](N)C(=O)O; β3hK = NCCCC[C@H](N)CC(=O)O
# Tests used:
# [1] = target: T1, human MOR (Homo sapiens, UniProt P35372); type: biochemical; settings: in words
# T1 construct: host or cells: CHO (CHO-hMOR)
# [2] = target: T2, human KOR (Homo sapiens, UniProt P41145); assay: [35S]GTPγS binding assay, CHO-hKOR membranes; type: biochemical; settings: in words
# T2 construct: host or cells: CHO (CHO-hKOR)
# [3] = target: T3, human DOR (Homo sapiens, UniProt P41143); assay: [35S]GTPγS binding assay, CHO-hDOR membranes; type: biochemical; settings: in words
# T3 construct: host or cells: CHO (CHO-hDOR)
# [4] = test system: NTS2; parameters: method as in PMID 27359371; settings: in words; cited from earlier work
# [5] = cited from earlier work
# [6] = target: T4, human NTS2 receptor (Homo sapiens, UniProt O95665); assay: Competitive radioligand binding ([125I]-NT), 1321N1-hNTS2 membranes; settings: ratio of Ki values NTS1 vs NTS2
# T4 construct: host or cells: 1321N1 (human astrocytoma)
# [7] = target: T5, human NTS1 (Homo sapiens, UniProt P30989); assay: cell-based; parameters: expressed in transfected cells; host or cells: HEK293 (transfected with PEI)
# [8] = target: T5, human NTS1; parameters: host or cells: CHO-K1; settings: CHO membranes, read-out: affinity Ki NTS1; cited from earlier work
# [9] = target: T4, human NTS2 receptor; settings: cited from earlier work; for Ki: human receptor, 1321N1 membranes, read-out: affinity Ki NTS2; for selectivity NTS2/NTS1: ratio of Ki values
# [10] = target: human κ-opioid receptor (human) (UniProt P41145)
# [11] = target: human neurotensin 1 receptor (human) (UniProt P30989)
# [12] = target: human μ-opioid receptor (human) (UniProt P35372)
# [13] = target: human δ-opioid receptor (human) (UniProt P41143)
# [14] = target: human neurotensin 2 receptor (human) (UniProt O95665); assay: radioligand binding; competition with [125I]-NT on membranes (15–20 μg) of CHO cells (hNTS1) or 1321N1 astrocytoma cells (hNTS2); binding buffer 10 mM Tris, 1 mM EDTA pH 7.5, peptides diluted with 50 mM Tris-HCl and 0.2% BSA; 60 min, ambient temperature, filtration; Ki by Cheng and Prusoff
# [15] = target: human neurotensin 1 receptor (human) (UniProt P30989); assay: as above
# [16] = target: human κ-opioid receptor (human) (UniProt P41145); assay: radioligand binding; competition on membranes (15–20 μg) of CHO cells stably expressing hMOR, hDOR or hKOR; radioligands [3H]DAMGO (hMOR), [3H]diprenorphine (hDOR), [3H]U69,593 (hKOR); 50 mM Tris-HCl pH 7.4, 60 min, 25 °C, filtration; Ki by Cheng and Prusoff
# [17] = target: human μ-opioid receptor (human) (UniProt P35372); assay: as above
# [18] = target: human δ-opioid receptor (human) (UniProt P41143); assay: as above
compound,measurement,setting,value
Cc1cc(O)cc(C)c1C[C@H](N)C(=O)N[C@H](CCCCN)C(=O)N[C@@H](Cc1ccccc1)C(=O)N[C@@H](Cc1ccccc1)C(=O)N[C@@H](CCCCN)C(=O)N[C@@H](CCCCN)C(=O)N1CCC[C@H]1C(=O)N[C@@H](Cc1ccccc1)C(=O)N[C@H](C(=O)N[C@@H](CC(C)C)C(=O)O)C(C)(C)C [PK20] (H-[Dmt][dK]FFKKPF[Tle]L-OH),functional profile at the MOR (G protein activation),[1],potent full agonist
same,functional profile at the KOR,[2],relatively potent KOR partial agonist
same,functional profile at the DOR,[3],weak partial agonist
COc1cccc(OC)c1-c1cc(C(=O)NC2(C(=O)O)C3CC4CC(C3)CC2C4)nn1-c1ccnc2cc(Cl)ccc12 (stereo not shown) [SR48692],activity at NTS2 in the FLIPR assay,[4],full agonist activity
COc1cccc(OC)c1-c1cc(C(=O)NC2(C(=O)O)C3CC4CC(C3)CC2C4)nn1-c1ccc(C(=O)N(C)CCCN(C)C)cc1C(C)C (stereo not shown) [SR142948a],activity at NTS2 in the FLIPR assay,[4],full agonist activity
"Cc1cc(O)cc(C)c1C[C@H](NC(=O)[C@@H]1CCCN1C(=O)[C@H](CCCNC(=N)N)NC(=O)[C@H](CCCNC(=N)N)NC(=O)CCN1Cc2ccccc2C[C@H](NC(=O)[C@@H](CCCNC(=N)N)NC(=O)[C@@H](N)Cc2c(C)cc(O)cc2C)C1=O)C(=O)N[C@H](C(=O)N[C@@H](CC(C)C)C(=O)O)C(C)(C)C [compound 5, H-Dmt-D-Arg-Aba-β-Ala-Arg-Arg-Pro-Dmt-Tle-Leu-OH] (H-[Dmt][dR][X1]RRP[Dmt][Tle]L-OH)",functional profile at the MOR (G protein activation),[1],very potent agonists
CC(C)C[C@H](NC(=O)[C@@H](NC(=O)[C@@H]1Cc2cc(O)ccc2CN1C(=O)[C@@H]1CCCN1C(=O)[C@H](CCCCN)NC(=O)C[C@@H](N)CCCCN)C(C)(C)C)C(=O)O [peptide 2] (H-[β3hK]KP[X2][Tle]L-OH),plasma stability t1/2,[5],> 24 h
"Cc1cc(O)cc(C)c1C[C@H](N)C(=O)N[C@H](CCCNC(=N)N)C(=O)N[C@H]1Cc2ccccc2CN(CCC(=O)N[C@@H](CCCNC(=N)N)C(=O)N[C@@H](CCCNC(=N)N)C(=O)N2CCC[C@H]2C(=O)N[C@@H](Cc2ccc(O)cc2)C(=O)N[C@H](C(=O)N[C@@H](CC(C)C)C(=O)O)C(C)(C)C)C1=O [peptide 3, H-Dmt-D-Arg-Aba-β-Ala-Arg-Arg-Pro-Tyr-Tle-Leu-OH] (H-[Dmt][dR][X1]RRPY[Tle]L-OH)",functional profile at the MOR (G protein activation),[1],very potent agonists
"Cc1cc(O)cc(C)c1C[C@H](N)C(=O)N[C@H](CCCNC(=N)N)C(=O)N[C@H]1Cc2ccccc2CN(CCC(=O)N[C@@H](CCCNC(=N)N)C(=O)N[C@@H](CCCNC(=N)N)C(=O)N2CCC[C@H]2C(=O)N2Cc3ccc(O)cc3C[C@H]2C(=O)N[C@H](C(=O)N[C@@H](CC(C)C)C(=O)O)C(C)(C)C)C1=O [peptide 9, H-Dmt-D-Arg-Aba-β-Ala-Arg-Arg-Pro-(6-OH)Tic-Tle-Leu-OH] (H-[Dmt][dR][X1]RRP[X2][Tle]L-OH)",functional profile at the MOR (G protein activation),[1],very potent agonists
same,selectivity NTS2/NTS1,[6],> 2700
same,EC50,[7],~2000 nM
same,fold decrease in NTS1 activity (EC50) compared to NT(8-13),[7],"13,000 fold"
same,fold decrease in NTS1 activity (EC50) compared to 1,[7]; vs 1,ca. 1000 fold
H-Arg-Arg-Pro-(6-OH)Tic-Tle-Leu-OH (H-RRP[(6-OH)Tic][Tle]L-OH; SMILES CC(C)C[C@H](NC(=O)[C@@H](NC(=O)[C@@H]1Cc2cc(O)ccc2CN1C(=O)[C@@H]1CCCN1C(=O)[C@H](CCCNC(=N)N)NC(=O)[C@@H](N)CCCNC(=N)N)C(C)(C)C)C(=O)O) [compound 15],Ki,[8],6680 ± 3700 nM
same,Ki,[9],132 ± 47 nM
H-Arg-Arg-Pro-(6-OH)Tic-Tle-Leu-OH [compound 15],selectivity NTS2/NTS1,[9],50
H-Arg-Arg-Pro-Dmt-Tle-Leu-OH [compound 14],Ki,[8],13.4 ± 2 nM
same,Ki,[9],3 ± 2 nM
same,selectivity NTS2/NTS1,[9],4.5
H-Arg-Arg-Pro-m-Tyr-Tle-Leu-OH [compound 16],Ki,[8],93 ± 22 nM
same,Ki,[9],24 ± 18 nM
same,selectivity NTS2/NTS1,[9],4
H-β^3hArg-Arg-Pro-Dmt-Tle-Leu-OH [peptide 13],Ki,[8],2.3 ± 0.2 nM
same,Ki,[9],0.11 ± 0.07 nM
same,selectivity NTS2/NTS1,[9],20.1
PK20 (peptide),"KOR [^35S]GTPγS binding, EC50",[10],47.1 nM
same,"KOR [^35S]GTPγS binding, Emax (% of U69,593)",[10],65%
same,"NTS1 Gαq activation (BRET), EC50",[11],19.1 nM
same,"NTS1 Gαq activation (BRET), Emax (% of NT(8-13))",[11],101%
same,"MOR [^35S]GTPγS binding, EC50",[12],13.3 nM
same,"MOR [^35S]GTPγS binding, Emax (% of DAMGO)",[12],91%
same,"MOR β-arrestin-2 recruitment, EC50",[12],956 nM
same,"MOR β-arrestin-2 recruitment, Emax (% of DAMGO)",[12],69%
same,"DOR [^35S]GTPγS binding, EC50",[13],479 nM
same,"DOR [^35S]GTPγS binding, Emax (% of DPDPE)",[13],78%
same,Ki,[14],29.5 nM
same,Ki,[15],188 nM
same,Ki,[16],33.5 nM
same,Ki,[17],4.13 nM
same,Ki,[18],46.4 nM
